Reference: ChEMBL document CHEMBL1137369, “New orally active derivatives of artemisinin with high efficacy against multidrug-resistant malaria in mice” (J Med Chem, 2006)

Columns and labels:
[1] = system: Plasmodium yoelii nigeriensis; assay: Antimalarial activity against multidrug-resistant Plasmodium yoelii nigeriensis infected Swiss mice (Mus musculus) at 48 mg/kg peroral dose over 4 days; type: functional; conditions: route oral
[2] = system: Plasmodium yoelii nigeriensis; assay: Antimalarial activity as cures against multidrug-resistant Plasmodium yoelii nigeriensis infected Swiss mice (Mus musculus) at 48 mg/kg peroral dose over 4 days; type: functional; conditions: route oral
[3] = system: Plasmodium yoelii nigeriensis; assay: Antimalarial activity against multidrug-resistant Plasmodium yoelii nigeriensis infected Swiss mice (Mus musculus) at 12 mg/kg peroral dose over 4 days; type: functional; conditions: route oral
[4] = Lipophilicity, Log P of the compound; type: physicochemical; conditions: octanol/water
[5] = Protection of Swiss mice (Mus musculus) infected with Plasmodium yoelii nigeriensis at 48 mg/kg, perorally for 4 days; type: functional; conditions: route oral
[6] = system: Plasmodium yoelii nigeriensis; assay: Antimalarial activity against multidrug-resistant Plasmodium yoelii nigeriensis infected Swiss mice (Mus musculus) at 6 mg/kg peroral dose over 4 days; type: functional; conditions: route oral

## C[C@H]1[C@@H](OCCOc2ccc(-c3ccccc3)cc2)O[C@@H]2C[C@@]3(C)CC[C@H]4[C@H](C)CC[C@@H]1[C@@]24OO3
[1]
  Activity: 100%
[2]
  Activity: 100%
[3]
  Activity: 100%
[4]
  logP: 6.85
[5]
  Activity: 100%

## C[C@H]1[C@H](OCCOc2ccc(-c3ccccc3)cc2)O[C@@H]2C[C@@]3(C)CC[C@H]4[C@H](C)CC[C@@H]1[C@@]24OO3
[1]
  Activity: 100%
[2]
  Activity: 100%
[3]
  Activity: 100%
[6]
  Activity: 44.33%
[4]
  logP: 6.85

## C[C@@H]1CC[C@H]2[C@@H](C)C(OCC34CC5CC(CC(C5)C3)C4)O[C@@H]3O[C@@]4(C)CC[C@@H]1[C@]32OO4 (stereo not given in full)
[1]
  Activity: 100%
[2]
  Activity: 100%
[3]
  Activity: 100%
[4]
  logP: 6.02
[5]
  Activity: 100%

## C[C@H]1[C@@H](OCC2c3ccccc3-c3ccccc32)O[C@@H]2C[C@@]3(C)CC[C@H]4[C@H](C)CC[C@@H]1[C@@]24OO3
[1]
  Activity: 100%
[2]
  Activity: 100%
[3]
  Activity: 100%
[6]
  Activity: 92.95%
[4]
  logP: 6.75

## C[C@H]1[C@@H](OCCC23CC4CC(CC(C4)C2)C3)O[C@@H]2O[C@@]3(C)CC[C@H]4[C@H](C)CC[C@@H]1[C@@]24OO3
[1]
  Activity: 100%
[2]
  Activity: 100%
[4]
  logP: 6.29
[5]
  Activity: 60%

## C[C@H]1[C@H](OCC2c3ccccc3-c3ccccc32)O[C@@H]2C[C@@]3(C)CC[C@H]4[C@H](C)CC[C@@H]1[C@@]24OO3
[1]
  Activity: 100%
[2]
  Activity: 100%
[3]
  Activity: 100%
[4]
  logP: 6.75

## C[C@H]1[C@H](OCc2ccc(-c3ccccc3)cc2)O[C@@H]2O[C@@]3(C)CC[C@H]4[C@H](C)CC[C@@H]1[C@@]24OO3
[1]
  Activity: 100%
[2]
  Activity: 100%
[3]
  Activity: 100%
[6]
  Activity: 86.33%
[4]
  logP: 6.91

## C[C@H]1[C@@H](OCCOc2ccccc2-c2ccccc2)O[C@@H]2C[C@@]3(C)CC[C@H]4[C@H](C)CC[C@@H]1[C@@]24OO3
[1]
  Activity: 100%
[2]
  Activity: 100%
[4]
  logP: 6.85

## C[C@H]1[C@@H](OCc2ccccc2-c2ccccc2)O[C@@H]2O[C@@]3(C)CC[C@H]4[C@H](C)CC[C@@H]1[C@@]24OO3
[1]
  Activity: 100%
[2]
  Activity: 100%
[3]
  Activity: 100%
[4]
  logP: 6.91
[5]
  Activity: 100%

## C[C@H]1[C@@H](OCCc2ccc(-c3ccccc3)cc2)O[C@@H]2O[C@@]3(C)CC[C@H]4[C@H](C)CC[C@@H]1[C@@]24OO3
[1]
  Activity: 100%
[2]
  Activity: 100%
[3]
  Activity: 100%
[4]
  logP: 7.19
[5]
  Activity: 100%

## C[C@H]1[C@H](OCCC2C3CC4CC(C3)CC2C4)O[C@@H]2O[C@@]3(C)CC[C@H]4[C@H](C)CC[C@@H]1[C@@]24OO3 (stereo not given in full)
[1]
  Activity: 100%
[2]
  Activity: 100%
[3]
  Activity: 100%
[4]
  logP: 6.15

## C[C@@H]1CC[C@H]2[C@@H](C)C(OCCC3c4ccccc4-c4ccccc43)O[C@@H]3C[C@@]4(C)CC[C@@H]1[C@]32OO4 (stereo not given in full)
[1]
  Activity: 100%
[2]
  Activity: 100%
[3]
  Activity: 100%
[4]
  logP: 7.1
[5]
  Activity: 100%

## C[C@H]1[C@@H](OCCC2C3CC4CC(C3)CC2C4)O[C@@H]2O[C@@]3(C)CC[C@H]4[C@H](C)CC[C@@H]1[C@@]24OO3 (stereo not given in full)
[1]
  Activity: 100%
[2]
  Activity: 100%
[4]
  logP: 6.15
[5]
  Activity: 100%

## C[C@H]1[C@H](OCCC23CC4CC(CC(C4)C2)C3)O[C@@H]2O[C@@]3(C)CC[C@H]4[C@H](C)CC[C@@H]1[C@@]24OO3
[1]
  Activity: 100%
[2]
  Activity: 100%
[3]
  Activity: 97.43%
[6]
  Activity: 61.25%
[4]
  logP: 6.29

## C[C@@H]1CC[C@H]2[C@@H](C)C(OC3C4CC5CC(C4)CC3C5)O[C@@H]3O[C@@]4(C)CC[C@@H]1[C@]32OO4 (stereo not given in full)
[1]
  Activity: 100%
[2]
  Activity: 100%
[3]
  Activity: 100%
[4]
  logP: 5.51
[5]
  Activity: 100%

## C[C@H]1[C@H](OCCOc2ccccc2-c2ccccc2)O[C@@H]2C[C@@]3(C)CC[C@H]4[C@H](C)CC[C@@H]1[C@@]24OO3
[1]
  Activity: 100%
[2]
  Activity: 100%
[3]
  Activity: 100%
[6]
  Activity: 64.44%
[4]
  logP: 6.85

## C[C@H]1[C@@H](OCc2ccc(-c3ccccc3)cc2)O[C@@H]2O[C@@]3(C)CC[C@H]4[C@H](C)CC[C@@H]1[C@@]24OO3
[1]
  Activity: 100%
[2]
  Activity: 100%
[3]
  Activity: 100%
[4]
  logP: 6.91
[5]
  Activity: 100%

## CCO[C@@H]1O[C@@H]2O[C@]3(C)CC[C@H]4[C@H](C)CC[C@@H]([C@H]1C)[C@@]24OO3 [ALPHA-ARTEETHER]
[1]
  Activity: 100%
[2]
  Activity: 100%
[4]
  logP: 3.84

## CCO[C@H]1O[C@@H]2O[C@@]3(C)CC[C@H]4[C@H](C)CC[C@@H]([C@H]1C)[C@@]24OO3 [ARTEMOTIL]
[1]
  Activity: 100%
[2]
  Activity: 100%
[4]
  logP: 3.84
